According to ChEMBL document CHEMBL1201862, “PubChem BioAssay data set” (2004):
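96-well plates; 48 h exposure; 5 concentrations. Endpoints by linear interpolation between flanking doses. Not reached: highest tested concentration assigned. GI50 is the concentration that inhibits growth by half.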 Activity calls are given as the source filed them. No stated cut-off is given here; in the data, active = GI50 up to about 1.1 µM and inactive = higher.

Experiments:
Test in all cases: NCI tumour cell line growth inhibition, 48 h
HCC 2998 = tested on: HCC 2998
NCI-H522 = tested on: NCI-H522
CCRF-CEM = tested on: CCRF-CEM
UACC-62 = tested on: UACC-62
SK-MEL-28 = tested on: SK-MEL-28
K562 = tested on: K562
U-251 = tested on: U-251
SNB-75 = tested on: SNB-75
ACHN = tested on: ACHN
A498 = tested on: A498
M14 = tested on: M14
OVCAR-8 = tested on: OVCAR-8
NCI-H460 = tested on: NCI-H460
LOX IMVI = tested on: LOX IMVI
HCT-15 = tested on: HCT-15
786-0 = tested on: 786-0
SK-MEL-2 = tested on: SK-MEL-2
RXF 393 = tested on: RXF 393
HOP-92 = tested on: HOP-92
OVCAR-5 = tested on: OVCAR-5

With CCCCNC(=O)OCC(COc1ccccc1OC)OC(=O)NCCCC (stereo unspecified) the GI50 (HCC 2998) was > 100 µM (inactive), the GI50 (NCI-H522) was 45.4 µM (inactive) and the GI50 (CCRF-CEM) was > 100 µM (inactive). For the same compound, the GI50 (UACC-62) was 89.9 µM (inactive), the GI50 (SK-MEL-28) was > 100 µM (inactive) and the GI50 (K562) was 68.5 µM (inactive). For the same compound, the GI50 (U-251) was > 100 µM (inactive), the GI50 (SNB-75) was 96.6 µM (inactive) and the GI50 (ACHN) was > 100 µM (inactive). The GI50 (A498) was > 100 µM (inactive), the GI50 (M14) was > 100 µM (inactive) and the GI50 (OVCAR-8) was > 100 µM (inactive). For the same compound, the GI50 (NCI-H460) was > 100 µM (inactive), the GI50 (LOX IMVI) was > 100 µM (inactive) and the GI50 (HCT-15) was > 100 µM. For the same compound, the GI50 (786-0) was > 100 µM (inactive), the GI50 (SK-MEL-2) was > 100 µM (inactive) and the GI50 (RXF 393) was > 100 µM (inactive).

With CC1CN(C(=O)CN2CCC(CCCCN(C)C)CC2)c2ccccc2NC1=O (stereo unspecified) the GI50 (HCC 2998) was > 100 µM (inactive), the GI50 (HOP-92) was > 100 µM (inactive) and the GI50 (CCRF-CEM) was > 100 µM (inactive). The GI50 (UACC-62) was > 100 µM (inactive), the GI50 (SK-MEL-28) was > 100 µM (inactive) and the GI50 (K562) was > 100 µM (inactive). For the same compound, the GI50 (U-251) was > 100 µM (inactive), the GI50 (ACHN) was > 100 µM (inactive) and the GI50 (OVCAR-5) was > 100 µM (inactive). For the same compound, the GI50 (A498) was > 100 µM (inactive), the GI50 (M14) was > 100 µM (inactive) and the GI50 (NCI-H460) was > 100 µM (inactive). The GI50 (LOX IMVI) was > 100 µM (inactive), the GI50 (HCT-15) was > 100 µM and the GI50 (786-0) was > 100 µM (inactive).

CCCCn1c(C)c(C(=O)CC)c(C(=O)NCCN2CCN(c3ccccc3Cl)CC2)c1C was tested, and the GI50 (HOP-92) was 14.1 µM (inactive), the GI50 (NCI-H522) was 17.4 µM (inactive) and the GI50 (CCRF-CEM) was 55.1 µM (inactive). For the same compound, the GI50 (UACC-62) was 15.8 µM (inactive), the GI50 (SK-MEL-28) was 20.9 µM (inactive) and the GI50 (K562) was 26.7 µM (inactive). The GI50 (U-251) was 16.6 µM (inactive), the GI50 (ACHN) was 16.4 µM (inactive) and the GI50 (OVCAR-5) was 17.5 µM (inactive). For the same compound, the GI50 (A498) was 17.5 µM (inactive), the GI50 (M14) was 17.6 µM (inactive) and the GI50 (OVCAR-8) was 17.3 µM (inactive). The GI50 (NCI-H460) was 15.3 µM (inactive), the GI50 (LOX IMVI) was 19.3 µM (inactive) and the GI50 (HCT-15) was 15.7 µM. For the same compound, the GI50 (786-0) was 16.1 µM (inactive), the GI50 (SK-MEL-2) was 16.7 µM (inactive) and the GI50 (RXF 393) was 19.9 µM (inactive).

For COc1cc(/C=N/N=C(\N)NO)cc(OC)c1OC, the GI50 (HCC 2998) was 36.6 µM (inactive), the GI50 (HOP-92) was 23.5 µM (inactive) and the GI50 (NCI-H522) was 34.8 µM (inactive). The GI50 (CCRF-CEM) was 31.8 µM (inactive), the GI50 (UACC-62) was 13.5 µM (inactive) and the GI50 (SK-MEL-28) was 57 µM (inactive). The GI50 (K562) was 21.6 µM (inactive), the GI50 (U-251) was 52.2 µM (inactive) and the GI50 (ACHN) was 21.5 µM (inactive). For the same compound, the GI50 (OVCAR-5) was 49.5 µM (inactive), the GI50 (A498) was 46.3 µM (inactive) and the GI50 (M14) was 28.4 µM (inactive). For the same compound, the GI50 (OVCAR-8) was 18.5 µM (inactive), the GI50 (NCI-H460) was 28.2 µM (inactive) and the GI50 (LOX IMVI) was 31.1 µM (inactive). For the same compound, the GI50 (HCT-15) was 28.6 µM, the GI50 (786-0) was 15.4 µM (inactive) and the GI50 (SK-MEL-2) was 54.3 µM (inactive). For the same compound, the GI50 (RXF 393) was 52.6 µM (inactive).

CC(C)CNC(=O)Cn1c2c(c3ccccc31)CCCC2 was tested, and the GI50 (HCC 2998) was > 100 µM (inactive), the GI50 (HOP-92) was 43.8 µM (inactive) and the GI50 (CCRF-CEM) was 56.4 µM (inactive). For the same compound, the GI50 (UACC-62) was 50.1 µM (inactive), the GI50 (SK-MEL-28) was > 100 µM (inactive) and the GI50 (K562) was 76.9 µM (inactive). The GI50 (ACHN) was 33 µM (inactive), the GI50 (OVCAR-5) was > 100 µM (inactive) and the GI50 (A498) was 22.2 µM (inactive). For the same compound, the GI50 (M14) was > 100 µM (inactive), the GI50 (OVCAR-8) was 81.5 µM (inactive) and the GI50 (NCI-H460) was 64.1 µM (inactive). For the same compound, the GI50 (LOX IMVI) was 39.5 µM (inactive), the GI50 (HCT-15) was > 100 µM and the GI50 (786-0) was 20.7 µM (inactive). For the same compound, the GI50 (SK-MEL-2) was > 100 µM (inactive).

In the case of CCOC1=NC(C(F)(F)F)(C(F)(F)F)N=C(/N=C(/N)N(C)C(C(C)C)P(=O)(OC(C)C)OC(C)C)O1 (stereo unspecified), the GI50 (HCC 2998) is reported as > 100 µM (inactive), the GI50 (NCI-H522) is reported as 27.9 µM (inactive) and the GI50 (CCRF-CEM) is reported as 23.8 µM (inactive). For the same compound, the GI50 (UACC-62) was 54.7 µM (inactive), the GI50 (SK-MEL-28) was > 100 µM (inactive) and the GI50 (K562) was 34.7 µM (inactive). For the same compound, the GI50 (U-251) was 64.9 µM (inactive), the GI50 (SNB-75) was 44.8 µM (inactive) and the GI50 (ACHN) was 44.7 µM (inactive). For the same compound, the GI50 (OVCAR-5) was > 100 µM (inactive), the GI50 (A498) was > 100 µM (inactive) and the GI50 (M14) was > 100 µM (inactive). For the same compound, the GI50 (OVCAR-8) was 48.5 µM (inactive), the GI50 (NCI-H460) was > 100 µM (inactive) and the GI50 (LOX IMVI) was 81.5 µM (inactive). The GI50 (HCT-15) was 58.7 µM, the GI50 (786-0) was > 100 µM (inactive) and the GI50 (SK-MEL-2) was 91.4 µM (inactive). The GI50 (RXF 393) was 41 µM (inactive).

For Cn1nc(-c2ccc(S(=O)(=O)N/C(=N/c3ccc(Cl)cc3)NN)s2)cc1C(F)(F)F, the GI50 (HOP-92) was 20.4 µM (inactive), the GI50 (UACC-62) was 16.9 µM (inactive) and the GI50 (SK-MEL-28) was 18.3 µM (inactive). The GI50 (K562) was 14.1 µM (inactive), the GI50 (U-251) was 14.6 µM (inactive) and the GI50 (SNB-75) was 16.3 µM (inactive). The GI50 (ACHN) was 18.4 µM (inactive), the GI50 (OVCAR-5) was 15.9 µM (inactive) and the GI50 (A498) was 16.4 µM (inactive). The GI50 (M14) was 17.5 µM (inactive), the GI50 (OVCAR-8) was 19.6 µM (inactive) and the GI50 (NCI-H460) was 19.9 µM (inactive). For the same compound, the GI50 (LOX IMVI) was 18.3 µM (inactive), the GI50 (HCT-15) was 21.8 µM and the GI50 (786-0) was 14.9 µM (inactive). The GI50 (SK-MEL-2) was 19.2 µM (inactive) and the GI50 (RXF 393) was 11.1 µM (inactive).

For Cn1cc(-c2ccc3c4ccccc4n(C)c3c2)c2ccccc21, the GI50 (HCC 2998) was > 100 µM (inactive), the GI50 (NCI-H522) was > 100 µM (inactive) and the GI50 (CCRF-CEM) was > 100 µM (inactive). For the same compound, the GI50 (UACC-62) was > 100 µM (inactive), the GI50 (SK-MEL-28) was > 100 µM (inactive) and the GI50 (K562) was 67.9 µM (inactive). The GI50 (U-251) was > 100 µM (inactive), the GI50 (SNB-75) was > 100 µM (inactive) and the GI50 (ACHN) was > 100 µM (inactive). For the same compound, the GI50 (OVCAR-5) was > 100 µM (inactive), the GI50 (A498) was > 100 µM (inactive) and the GI50 (M14) was > 100 µM (inactive). The GI50 (OVCAR-8) was > 100 µM (inactive), the GI50 (NCI-H460) was > 100 µM (inactive) and the GI50 (LOX IMVI) was > 100 µM (inactive). The GI50 (HCT-15) was 36.6 µM, the GI50 (786-0) was > 100 µM (inactive) and the GI50 (SK-MEL-2) was > 100 µM (inactive). For the same compound, the GI50 (RXF 393) was > 100 µM (inactive).
